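A five-concentration, 48-hour dose response in 96-well plates underlies each endpoint, interpolated linearly between surrounding concentrations. The concentration for 50% growth inhibition is given as GI50.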 Activity calls are given as the source filed them. Rule as the data show it: active = GI50 up to about 1.1 µM and inactive = higher.
Key:
Test in all cases: growth of human tumour cells (NCI), 48 h
SF-268 = system: SF-268
TK-10 = system: TK-10
T47D = system: T47D
OVCAR-8 = system: OVCAR-8
SK-MEL-28 = system: SK-MEL-28
UACC-257 = system: UACC-257
HCC 2998 = system: HCC 2998
UACC-62 = system: UACC-62
OVCAR-5 = system: OVCAR-5
CAKI-1 = system: CAKI-1
HL-60 = system: HL-60
HT-29 = system: HT-29
UO-31 = system: UO-31
MDA-N = system: MDA-N
SK-OV-3 = system: SK-OV-3
HOP-92 = system: HOP-92
SK-MEL-5 = system: SK-MEL-5
HOP-62 = system: HOP-62
LOX IMVI = system: LOX IMVI
NCI-H23 = system: NCI-H23
SF-539 = system: SF-539
HCT-116 = system: HCT-116
MOLT-4 = system: MOLT-4
SR = system: SR
MCF7 = system: MCF7
IGROV-1 = system: IGROV-1
NCI-H460 = system: NCI-H460
SNB-19 = system: SNB-19
M14 = system: M14
NCI/ADR-RES = system: NCI/ADR-RES
A498 = system: A498
SN12C = system: SN12C
Malme-3M = system: Malme-3M
A549 = system: A549
SNB-75 = system: SNB-75
U-251 = system: U-251
SW-620 = system: SW-620
OVCAR-3 = system: OVCAR-3
ACHN = system: ACHN
Hs-578T = system: Hs-578T
OVCAR-4 = system: OVCAR-4
CCRF-CEM = system: CCRF-CEM
K562 = system: K562
MDA-MB-231 = system: MDA-MB-231
NCI-H522 = system: NCI-H522
786-0 = system: 786-0
RXF 393 = system: RXF 393
SK-MEL-2 = system: SK-MEL-2
COLO 205 = system: COLO 205
EKVX = system: EKVX
DU-145 = system: DU-145
RPMI-8226 = system: RPMI-8226
NCI-H226 = system: NCI-H226
SF-295 = system: SF-295
MDA-MB-435 = system: MDA-MB-435
PC-3 = system: PC-3
BT-549 = system: BT-549
KM12 = system: KM12
HCT-15 = system: HCT-15

## O=C(CNc1ccc([N+](=O)[O-])cc1)Nn1c(-c2ccccc2)nc2ccccc2c1=O
SF-268
  GI50: 4.23 µM (inactive)
TK-10
  GI50: 6.15 µM (inactive)
T47D
  GI50: 3.11 µM (inactive)
OVCAR-8
  GI50: 4.24 µM (inactive)
SK-MEL-28
  GI50: 3.25 µM (inactive)
UACC-257
  GI50: 7.78 µM (inactive)
HCC 2998
  GI50: 9.02 µM (inactive)
UACC-62
  GI50: 1.32 µM (inactive)
OVCAR-5
  GI50: 5.73 µM (inactive)
CAKI-1
  GI50: 2.24 µM (inactive)
HL-60
  GI50: 2.26 µM (inactive)
HT-29
  GI50: 3.06 µM (inactive)
UO-31
  GI50: 4.32 µM (inactive)
MDA-N
  GI50: 3.49 µM (inactive)
SK-OV-3
  GI50: 3.97 µM (inactive)
HOP-92
  GI50: 0.377 µM (active)
SK-MEL-5
  GI50: 1.04 µM (active)
HOP-62
  GI50: 11.2 µM (inactive)
LOX IMVI
  GI50: 0.841 µM (active)
NCI-H23
  GI50: 2.43 µM (inactive)
SF-539
  GI50: 2.85 µM (inactive)
HCT-116
  GI50: 3.03 µM (inactive)
MOLT-4
  GI50: 1.89 µM (inactive)
SR
  GI50: 3.1 µM (inactive)
MCF7
  GI50: 2.52 µM (inactive)
IGROV-1
  GI50: 3.64 µM (inactive)
NCI-H460
  GI50: 3.81 µM (inactive)
SNB-19
  GI50: 8.75 µM (inactive)
M14
  GI50: 3.03 µM (inactive)
NCI/ADR-RES
  GI50: 2.33 µM (inactive)
A498
  GI50: 7.01 µM (inactive)
SN12C
  GI50: 2.2 µM (inactive)
Malme-3M
  GI50: 2.03 µM (inactive)
A549
  GI50: 8.77 µM (inactive)
SNB-75
  GI50: 3.73 µM (inactive)
U-251
  GI50: 1.95 µM (inactive)
SW-620
  GI50: 2.39 µM (inactive)
OVCAR-3
  GI50: 6.93 µM (inactive)
ACHN
  GI50: 3.95 µM (inactive)
Hs-578T
  GI50: 2.73 µM (inactive)
OVCAR-4
  GI50: 2.79 µM (inactive)
CCRF-CEM
  GI50: 0.811 µM (active)
K562
  GI50: 1.91 µM (inactive)
MDA-MB-231
  GI50: 3.52 µM (inactive)
NCI-H522
  GI50: 1.72 µM (inactive)
786-0
  GI50: 2.4 µM (inactive)
RXF 393
  GI50: 2.82 µM (inactive)
SK-MEL-2
  GI50: 2.15 µM (inactive)
COLO 205
  GI50: 2.28 µM (inactive)
EKVX
  GI50: 13.4 µM (inactive)
DU-145
  GI50: 8.91 µM (inactive)
RPMI-8226
  GI50: 2.47 µM (inactive)
NCI-H226
  GI50: 4.69 µM (inactive)
SF-295
  GI50: 14.5 µM (inactive)
MDA-MB-435
  GI50: 3.96 µM (inactive)
PC-3
  GI50: 3.07 µM (inactive)
BT-549
  GI50: 1.82 µM (inactive)
KM12
  GI50: 4.56 µM (inactive)
HCT-15
  GI50: 2.93 µM

## COc1ccc(/N=C2\C(=S)N(c3ccc(OC)cc3)/C(=N/S(=O)(=O)c3ccccc3)N2c2ccccc2)cc1
SF-268
  GI50: 8.87 µM (inactive)
TK-10
  GI50: 14.7 µM (inactive)
T47D
  GI50: 1.09 µM (active)
OVCAR-8
  GI50: 3.95 µM (inactive)
SK-MEL-28
  GI50: 13.8 µM (inactive)
UACC-257
  GI50: 13 µM (inactive)
HCC 2998
  GI50: > 34.5 µM (inactive)
UACC-62
  GI50: 6.07 µM (inactive)
OVCAR-5
  GI50: 17.3 µM (inactive)
CAKI-1
  GI50: 13.2 µM (inactive)
HL-60
  GI50: 0.986 µM (active)
HT-29
  GI50: 19.9 µM (inactive)
UO-31
  GI50: 3.59 µM (inactive)
MDA-N
  GI50: 3.93 µM (inactive)
SK-OV-3
  GI50: > 39.9 µM (inactive)
HOP-92
  GI50: 7.01 µM (inactive)
SK-MEL-5
  GI50: 4.57 µM (inactive)
HOP-62
  GI50: > 35.3 µM (inactive)
LOX IMVI
  GI50: 3.59 µM (inactive)
NCI-H23
  GI50: 10.2 µM (inactive)
SF-539
  GI50: 9.12 µM (inactive)
HCT-116
  GI50: 6.64 µM (inactive)
MOLT-4
  GI50: 0.953 µM (active)
SR
  GI50: 0.889 µM (active)
MCF7
  GI50: 17 µM (inactive)
IGROV-1
  GI50: 12.9 µM (inactive)
NCI-H460
  GI50: 23.8 µM (inactive)
SNB-19
  GI50: 36.9 µM (inactive)
M14
  GI50: 4.9 µM (inactive)
NCI/ADR-RES
  GI50: 23.6 µM (inactive)
A498
  GI50: > 100 µM (inactive)
SN12C
  GI50: 15.1 µM (inactive)
Malme-3M
  GI50: 15.1 µM (inactive)
A549
  GI50: 34.9 µM (inactive)
SNB-75
  GI50: 17.3 µM (inactive)
U-251
  GI50: 8.53 µM (inactive)
SW-620
  GI50: 2.62 µM (inactive)
OVCAR-3
  GI50: 5.5 µM (inactive)
ACHN
  GI50: 8.85 µM (inactive)
Hs-578T
  GI50: 17.9 µM (inactive)
OVCAR-4
  GI50: 9.25 µM (inactive)
CCRF-CEM
  GI50: 2.59 µM (inactive)
K562
  GI50: 1.02 µM (active)
MDA-MB-231
  GI50: 4.79 µM (inactive)
NCI-H522
  GI50: 1.64 µM (inactive)
786-0
  GI50: 7.14 µM (inactive)
RXF 393
  GI50: 5.22 µM (inactive)
SK-MEL-2
  GI50: 7.64 µM (inactive)
COLO 205
  GI50: 8.81 µM (inactive)
EKVX
  GI50: 16.4 µM (inactive)
DU-145
  GI50: 22.1 µM (inactive)
RPMI-8226
  GI50: 1.45 µM (inactive)
NCI-H226
  GI50: 16 µM (inactive)
SF-295
  GI50: 22.2 µM (inactive)
MDA-MB-435
  GI50: 7.87 µM (inactive)
PC-3
  GI50: 4.67 µM (inactive)
BT-549
  GI50: 4.94 µM (inactive)
KM12
  GI50: 13.2 µM (inactive)
HCT-15
  GI50: 5.75 µM

— ChEMBL document CHEMBL1201862, “PubChem BioAssay data set” (2004)
